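48-hour exposure; five concentrations; linearly interpolated endpoints. GI50 marks 50% less growth.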 The source made the active and inactive calls. Rule as the data show it: active = GI50 up to about 1.1 µM and inactive = higher. Some results are limits rather than exact numbers.

Here are results for 13 compounds from ChEMBL document CHEMBL1201862, “PubChem BioAssay data set” (2004).

What all share (test): NCI tumour cell line growth inhibition, 48 h
Assay [1] concerns HOP-62.
For assay [2], the system named is IGROV-1.
The test system of assay [3] is OVCAR-8.
Assay [4] has as its system M14.
Assay [5] concerns OVCAR-3.
Assay [6] concerns SW-620.
For assay [7], the system named is NCI-H460.
Assay [8] relates to SK-MEL-2.
Assay [9] concerns LOX IMVI.
Assay [10] concerns SNB-19.
For assay [11], the system named is HCC 2998.
Assay [12] deals with SF-295.
For assay [13], the system named is HOP-92.
The subject of assay [14] is U-251.
Assay [15] relates to NCI/ADR-RES.
Assay [16] concerns Hs-578T.
Assay [17] has as its system PC-3.
The test system of assay [18] is DU-145.
Assay [19] deals with MCF7.

As to `c1coc(CNc2[nH]cnc3nncc2-3)c1`, the GI50 in assay [1], in [2], in [3], in [4], in assay [5] and in assay [6] was > 100 µM (inactive) throughout. The GI50 in assay [7], in assay [8], in assay [9], in assay [10], in assay [11] and in assay [12] was > 100 µM (inactive) in each case. The results for the GI50 in assay [13] and in [14] were 35.8 µM (inactive) and > 100 µM (inactive), respectively.
In the case of `CC1=NN(c2ccccc2)C(=O)/C1=C/c1ccc(O)cc1`, the GI50 in assay [15], in assay [2], in assay [3], in assay [4], in assay [5] and in [16] was > 100 µM (inactive) throughout. For the same compound, the GI50 in [6], in assay [7], in assay [17], in [8], in [9] and in assay [10] was > 100 µM (inactive) each time. In addition, the GI50 in [11], in assay [12], in assay [13], in [14], in assay [18] and in assay [19] was > 100 µM (inactive) throughout.
Regarding `CCCCCCCC(=O)OC(CBr)COC(=O)C(C)(C)C` (stereo unspecified), the GI50 in [1] was > 100 µM (inactive); in [2] it was > 100 µM (inactive); in [3], > 100 µM (inactive); in assay [4], > 100 µM (inactive); in assay [5] it was > 68.2 µM (inactive); in assay [6] it was > 100 µM (inactive). Besides, the GI50 in assay [7] was > 100 µM (inactive); in [8], > 100 µM (inactive); in assay [9], > 63.2 µM (inactive); in assay [10], > 100 µM (inactive); in assay [11], > 100 µM (inactive); in assay [12], > 100 µM (inactive). Besides, the figures for the GI50 in [13] and in [14] were > 95.5 µM (inactive) and > 100 µM (inactive), respectively.
For `CS/C(N)=N/c1cccc2ccccc12`, the GI50 in [15], in assay [1], in assay [2], in assay [3], in [4] and in assay [5] was > 10 µM (inactive) each time. Also, the GI50 in [6], in [7], in assay [17], in assay [8], in assay [9] and in assay [10] was > 10 µM (inactive) throughout. Further, the GI50 in assay [11], in assay [12], in [13], in [14], in assay [18] and in assay [19] was > 10 µM (inactive) in each case.
With `C=C(Br)CN(C(C)=O)C1CCCCC1`, the GI50 in assay [15], in assay [1], in [2], in [3], in assay [4] and in [5] was > 100 µM (inactive) throughout. Moreover, the GI50 in assay [16], in assay [6], in [7], in assay [17], in [8] and in [9] was > 100 µM (inactive) throughout. The GI50 in assay [10], in assay [11], in assay [12], in [14], in assay [18] and in assay [19] was > 100 µM (inactive) in each case.
As to `OCC[N+]12CCCN1CCC2`, the GI50 in [1], in assay [2], in assay [3], in [4], in assay [5] and in assay [6] was > 100 µM (inactive) each time. Also, the GI50 in assay [7], in [8], in [9], in assay [10], in assay [11] and in [12] was > 100 µM (inactive) in each case. Also, the GI50 in assay [13] and in assay [14] was > 100 µM (inactive) each time.
As for `N#C/C(=C\c1cccc(Br)c1)c1nc2ccccc2c(=O)[nH]1`, the GI50 is > 100 µM (inactive) in assay [15]; 21.9 µM (inactive) in assay [1]; > 100 µM (inactive) in assay [2]; > 100 µM (inactive) in assay [3]; > 100 µM (inactive) in [4]; > 100 µM (inactive) in [6]. In addition, the GI50 is > 100 µM (inactive) in assay [7]; > 100 µM (inactive) in assay [17]; > 100 µM (inactive) in [8]; > 100 µM (inactive) in assay [9]; 43.7 µM (inactive) in assay [10]; > 100 µM (inactive) in [11]. The GI50 in [12] is 53.5 µM (inactive); in assay [13] it was 15.1 µM (inactive); in [14], 40.3 µM (inactive); in assay [18], > 100 µM (inactive); in assay [19] it was > 100 µM (inactive).
Consider `COc1ccc(/C(=N/NC(=O)NN)C(c2ccc(OC)cc2)C2(O)CNc3c(Cl)cc(Cl)cc32)cc1` (stereo unspecified), for which the GI50 in [1], in [2], in assay [3], in [4], in [5] and in [6] was > 100 µM (inactive) each time. For the same compound, the GI50 in assay [7], in assay [8], in assay [9], in assay [10], in assay [11] and in assay [12] was > 100 µM (inactive) throughout. Moreover, the figures for the GI50 in assay [13] and in assay [14] were 37.7 µM (inactive) and > 100 µM (inactive), respectively.
Take `O=C1C=C(Br)C(=O)C(Br)=C1`: the GI50 in assay [1] is > 100 µM (inactive); in assay [2], > 100 µM (inactive); in assay [3] it was > 100 µM (inactive); in assay [4] it was > 100 µM (inactive); in assay [5] it was > 62.2 µM (inactive); in [6], 59.7 µM (inactive). For the same compound, the GI50 in assay [7] was > 100 µM (inactive); in assay [8], > 100 µM (inactive); in assay [9], > 31.6 µM (inactive); in assay [10], > 100 µM (inactive); in assay [11], 74 µM (inactive); in assay [12], > 100 µM (inactive). In addition, the GI50 in assay [13] and in assay [14] was > 100 µM (inactive) each time.
`COc1ccc(N2C(=O)C3c4[nH]c5ccccc5c4C4CCCCCCCCCCC4C3C2=O)cc1` (stereo unspecified): the GI50 in [1] is 20.3 µM (inactive); in assay [2], > 28.2 µM (inactive); in assay [3], 3.39 µM (inactive); in [4], 7.8 µM (inactive); in [5], 9.95 µM (inactive); in [6], 4.58 µM (inactive). In addition, the GI50 was 4.92 µM (inactive) in assay [7]; > 100 µM (inactive) in assay [8]; 11.1 µM (inactive) in [9]; 8.81 µM (inactive) in assay [10]; > 100 µM (inactive) in assay [11]; 10.7 µM (inactive) in assay [12]. Further, the GI50 in [13] is 19 µM (inactive); in assay [14] it was 7.62 µM (inactive).
Take `CCOC(=O)c1[nH]c(COC(C)=O)c2c1CCCCCCCCCC2`: the GI50 in [1], in assay [2], in [3], in assay [4], in assay [5] and in [6] was > 100 µM (inactive) in each case. Moreover, the GI50 in assay [7], in assay [8], in assay [9], in [10], in assay [11] and in [12] was > 100 µM (inactive) throughout. Besides, the GI50 in assay [13] and in assay [14] was > 100 µM (inactive) each time.
Take `COC1CC(n2ccc(=O)[nH]c2=O)OC1CO` (stereo unspecified): the GI50 in assay [15], in assay [1], in assay [2], in assay [3], in assay [4] and in assay [5] was > 100 µM (inactive) each time. In addition, the GI50 in assay [6], in assay [7], in assay [17], in [8], in [9] and in assay [10] was > 100 µM (inactive) each time. Further, the GI50 in assay [11] was > 100 µM (inactive); in [12] it was > 100 µM (inactive); in assay [13] it was > 100 µM (inactive); in assay [14], > 100 µM (inactive); in [18], > 100 µM (inactive); in [19], < 0.01 µM (active).
`COc1cc(/C=C\c2ccccc2)cc(OC)c1OC`: the GI50 is 2.9 µM (inactive) in assay [1]; 4.65 µM (inactive) in assay [2]; 3.69 µM (inactive) in assay [3]; 2.51 µM (inactive) in [4]; 2.29 µM (inactive) in [5]; 2.84 µM (inactive) in [6]. In addition, the GI50 is 2.55 µM (inactive) in assay [7]; 4.07 µM (inactive) in assay [8]; 4.6 µM (inactive) in assay [9]; 6.08 µM (inactive) in assay [10]; 11.8 µM (inactive) in [11]; 2.18 µM (inactive) in [12]. Moreover, the figures for the GI50 in assay [13] and in assay [14] were 3.53 µM (inactive) and 4.15 µM (inactive), respectively.
